Counter-ions that a name gives are not always drawn. Like-named read-outs stand apart in the source and are kept apart here.
Key:
Cdc7/Dbf4 complex = molecular target: T1, Cdc7/Dbf4 complex (Homo sapiens, UniProt O00311); assay: Measurement of Cdc7 kinase inhibitory activity (Transcreener ADP HTRF assay); type: biochemical; details: Cdc7/Dbf4, 1.0 μm ATP, 10 μg/ml MCM2
T1 construct: Full-length Cdc7 co-expressed with full-length Dbf4; purchased Carna Biosciences (Kobe)
Procedure: Full-length Cdc7 co-expressed with full-length Dbf4 was purchased from Carna Biosciences (Kobe). The enzyme activity of Cdc7/Dbf4 complex was detected by homogeneous time-resolved fluorescence method Transcreener ADP assay (Cisbio Inc., MA, U.S.A.). […] Free ADP produced by ATP hydrolysis was detected by Eu^3+-Cryptate-labeled anti-ADP monoclonal antibody competitively with d2-labeled ADP, and the production amount thereof was measured. The obtained time-resolved fluorescence resonance energy transfer signal was measured by EnVision (Perkin Elmer Inc., MA, U.S.A.). The inhibitory rate (%) of the test compound to Cdc7 was calculated by the following formula. Inhibitory rate(%)=(1−(count of test compound-blank)[…](control-blank))×100
The count of the Cdc7/Dbf4 reaction mixture under compound-free conditions was taken as the control, and that under compound-free and Cdc7/Dbf4-free conditions was taken as the blank.

[1] = tested on: human colorectal cancer cell Colo205; assay: Measurement of growth inhibitory activity on human colorectal cancer cell Colo205 (CellTiter-Glo); type: cell-based; details: COLO 205, 72 h, read-out: inhibitory rate (%) at 1 μM
Procedure: The growth inhibition of colorectal cancer cell Colo205 with the compound of the present invention can be measured as follows.
A cell suspension (100 μl) of human colorectal cancer cell Colo205 (purchased from ATCC) (3,000 cells/well) was plated in a 96 well plate, and cultured in a 5% carbon dioxide gas incubator at 37° C. for 1 day. Each 2 μM test compound solution was added by 100 μl and the cells were cultured for 3 days. CellTiter-Glo™ Luminescent Cell Viability Assay reagent (50 μl, Promega) was added to the 96 well plate, the luminescence level was measured by a luminometer and the residual ATP amount was taken as the cell amount. The luminescence level of a well free of cell plating was taken as a blank. The cell proliferation inhibitory rate (%) of the test compound was calculated by the following formula. Inhibitory rate(%)=(1−(luminescence level of test compound—blank)[…](luminescence level of control group—blank))×100

[2] = tested on: phosphorylated MCM2 (Ser40/Ser41); assay: Measurement of MCM2 phosphorylation inhibitory activity in human colorectal cancer cell Colo205 (Western blot); type: cell-based; details: read-out: inhibitory rate (%) at 1 μM
Procedure: The MCM2 phosphorylation suppressive action of the compound of the present invention in human colorectal cancer cell Colo205 can be measured as follows. A cell suspension (500 μl) of human colorectal cancer cell Colo205 (purchased from ATCC) (50,000 cells/well) was plated in a 24 well plate, and cultured in a 5% carbon dioxide gas incubator at 37° C. for 1 day. […] The plate was washed with PBS, the cells were lysed in Laemmli Sample Buffer (BioRad), and cell lysate was treated at 95° C. for 5 min.

[3] = tested on: human colorectal cancer cell Colo205; assay: Measurement of antitumor activity in human colorectal cancer cell Colo205 cancer bearing mouse; type: in vivo; details: Colo205 tumor growth ratio, mice
Procedure: Tumor volume=long diameter×short diameter×short diameter×(½) Mice having an engrafted tumor volume of about 200 mm^3 were selected, and 5 mice per group were used for the experiment. […] The tumor diameter was measured one day before the start of the administration and the next day of the completion of the administration and the tumor volume was calculated. The tumor growth ratio of the test compound administration group as compared to that of the control administration group was taken as T/C(%) and calculated by the following formula. T/C(%)=(tumor volume of test compound administration group after completion of administration−tumor volume of test compound administration group one day before start of administration)/(tumor volume of control administration group after completion of administration−tumor volume of control administration group one day before start of administration))×100

[4] = tested on: phosphorylated MCM2 (Ser40/Ser41); assay: animal or person; details: Mus musculus, COLO 205, po, 4 h, read-out: inhibitory rate (%)
Procedure: Human colorectal cancer cell Colo205 was suspended in 50% Matrigel solution, and transplanted into 6- to 7-week-old female BALB/c mice (CLEA Japan, Inc.) at 5.0×10^6 cells by subcutaneous injection. The diameter of the tumor engrafted in 7 to 14 days from the transplantation was measured, and the tumor volume was calculated by the following formula. Tumor volume=long diameter×short diameter×short diameter×(½)
A suspension of the test compound in 0.5% methylcellulose solution (Wako Pure Chemical Industries, Ltd.) was orally administered at a dose shown in the Table to mice having a tumor volume of 150-600 mm^3. The tumor was removed under ether anesthesia at 4 hr after administration of the test compound, and homogenized in Cell Lysis Buffer (Cell Signaling). Using BCA Protein assay kit (Thermo Scientific), the protein in the tumor lysate was quantified, and the protein amount was adjusted. The above-mentioned protein solution was treated with Laemmli Sample Buffer (BioRad) at 95° C. for 5 min.
Then, SDS-PAGE was performed and the protein was transferred onto a PVDF membrane by using iBlot™ gel transfer system (Invitrogen). […] The membrane was washed in the same manner as above, chemical luminescence of antibody-labeled phosphorylated MCM2 protein using SuperSignal West FemtoMaximum Sensitivity Substrate (Pierce Biotechnology) was detected by lumino image analyzer LAS-1000 (Fuji Film).
Using the anti-MCM2 antibody (Santa Cruzu Biotechnology, sc-9839) and HRP-labeled goat IgG polyclonal antibody (Santa Cruzu Biotechnology, sc-2020) and in the same manner as above, the MCM2 protein was detected.
The phosphorylated MCM2 specific activity of each sample was calculated by the following formula. Phosphorylated MCM2 specific activity=(phosphorylated MCM2 luminescence level-background)+(MCM2 luminescence level-background)
The phosphorylated MCM2 protein inhibitory rate (%) of the test compound was calculated by the following formula and shown in Table. […]

[5] = test compound 1 μM, dihydrochloride
[6] = read-out: inhibitory rate (%) at 1 μM, test compound 1 μM
[7] = 100 mg/kg orally twice a day for 14 days
[8] = test compound 1 μM, read-out: inhibitory rate (%) at 1 μM
[9] = cell proliferation, Colo205, 1 μM, cultured for 3 days
[10] = COLO 205, phosphorylated MCM2 protein, Colo205 cells, 1 μM, 8 hr

T1 sequence (O00311 whole entry): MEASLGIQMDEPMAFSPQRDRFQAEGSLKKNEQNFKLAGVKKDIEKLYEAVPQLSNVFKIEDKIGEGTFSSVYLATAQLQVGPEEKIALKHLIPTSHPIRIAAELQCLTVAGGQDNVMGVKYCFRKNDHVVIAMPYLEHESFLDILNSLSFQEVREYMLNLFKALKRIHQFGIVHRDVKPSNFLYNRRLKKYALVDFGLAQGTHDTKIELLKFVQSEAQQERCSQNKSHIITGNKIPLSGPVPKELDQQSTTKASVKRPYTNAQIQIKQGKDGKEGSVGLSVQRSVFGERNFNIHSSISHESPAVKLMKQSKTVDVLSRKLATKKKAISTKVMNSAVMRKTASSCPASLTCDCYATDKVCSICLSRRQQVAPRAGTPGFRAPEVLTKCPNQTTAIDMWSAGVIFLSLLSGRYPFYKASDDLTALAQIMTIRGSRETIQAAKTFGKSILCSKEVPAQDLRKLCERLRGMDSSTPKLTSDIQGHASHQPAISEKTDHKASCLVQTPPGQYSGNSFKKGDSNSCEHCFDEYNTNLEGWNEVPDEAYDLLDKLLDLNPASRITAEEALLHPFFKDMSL
T1 sequence (Q9UBU7 whole entry partner): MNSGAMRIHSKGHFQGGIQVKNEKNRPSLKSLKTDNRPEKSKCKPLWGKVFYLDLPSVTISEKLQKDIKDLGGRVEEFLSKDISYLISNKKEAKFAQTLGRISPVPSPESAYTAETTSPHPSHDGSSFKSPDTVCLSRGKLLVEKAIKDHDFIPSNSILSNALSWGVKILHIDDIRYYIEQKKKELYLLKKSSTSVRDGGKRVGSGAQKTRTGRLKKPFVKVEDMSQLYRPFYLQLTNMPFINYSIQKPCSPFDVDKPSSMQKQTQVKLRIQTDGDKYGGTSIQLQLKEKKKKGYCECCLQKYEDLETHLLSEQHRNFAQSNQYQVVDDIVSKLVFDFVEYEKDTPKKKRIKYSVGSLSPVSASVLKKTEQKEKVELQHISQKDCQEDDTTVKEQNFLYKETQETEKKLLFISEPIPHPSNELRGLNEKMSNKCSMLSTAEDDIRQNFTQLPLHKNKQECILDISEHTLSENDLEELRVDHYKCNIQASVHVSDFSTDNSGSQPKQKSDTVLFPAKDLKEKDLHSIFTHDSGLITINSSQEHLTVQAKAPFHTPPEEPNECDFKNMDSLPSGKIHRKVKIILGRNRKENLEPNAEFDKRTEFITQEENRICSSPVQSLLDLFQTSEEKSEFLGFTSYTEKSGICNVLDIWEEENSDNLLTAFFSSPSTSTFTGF

SMILES | inhibition at 1 µM (Cdc7/Dbf4 complex; [6]) [%] | inhibition at 1 µM [1] [%] | inhibition at 1 µM ([2]; COLO 205, 8 h) [%] | T/C (%) [3, 7] [%] | inhibition at 100 mg/kg [4] [%] | inhibition at 1 µM (Cdc7/Dbf4 complex; [8]) [%] | other results
Cc1[nH]ncc1-c1cc2nc([C@@H]3CCCN3)[nH]c(=O)c2s1 [Example 37, 6-(5-methyl-1H-pyrazol-4-yl)-2-[(2S)-pyrrolidin-2-yl]thieno[3,2-d]pyrimidin-4 (3H)-one dihydrochloride] |  | 75.3 | 98.4 |  |  |  | inhibitory rate (%) at 1 μM (Cdc7/Dbf4 complex; [5]): 102.6%
Cc1[nH]ncc1-c1cc2nc([C@@H]3CC4CCN3CC4)[nH]c(=O)c2s1 [Example 170, 2-[(2S)-1-azabicyclo[2.2.2]oct-2-yl]-6-(5-methyl-1H-pyrazol-4-yl)thieno[3,2-d]pyrimidin-4 (3H)-one trifluoroacetate] |  | 69.7 | 97.3 |  |  | 95 | 
Cc1[nH]ncc1-c1cc2nc([C@H]3NC4CC3[C@H](F)C4)[nH]c(=O)c2s1 (single isomer, unassigned) [Example 175, 2-[(1R,3S,4R,5R) or (1S,3S,4S,5R)-5-fluoro-2-azabicyclo[2.2.1]hept-3-yl]-6-(5-methyl-1H-pyrazol-4-yl)thieno[3,2-d]pyrimidin-4 (3H)-one hydrochloride] |  |  |  |  |  |  | inhibitory rate (%) at 1 μM (Cdc7/Dbf4 complex; test compound 1 μM, hydrochloride): 105%; T/C (%) ([3]; 50 mg/kg orally twice a day for 14 days): 40.3%
Cc1[nH]ncc1-c1cc2nc([C@H]3N[C@@H]4CC[C@H]3C4)[nH]c(=O)c2s1 [Example 91, 2-[(1R,3S,4S)-2-azabicyclo[2.2.1]heptan-3-yl]-6-(5-methyl-1H-pyrazol-4-yl)thieno[3,2-d]pyrimidin-4 (3H)-one] |  |  |  |  |  | 106 | inhibition at 1 µM [1, 9]: 71.7%; inhibition at 1 µM [2, 10]: 98.4%
Cc1[nH]ncc1-c1cc2nc([C@H]3NC4CC3[C@H](F)C4)[nH]c(=O)c2s1 (single isomer, unassigned) [Example 160, 2-[(1R,3S,4R,5R) or (1S,3S,4S,5R)-5-fluoro-2-azabicyclo[2.2.1]hept-3-yl]-6-(5-methyl-1H-pyrazol-4-yl)thieno[3,2-d]pyrimidin-4 (3H)-one dihydrochloride] |  |  |  |  |  | 104 | inhibition at 1 µM [1, 9]: 73.3%; inhibition at 1 µM [2, 10]: 95%
Cc1[nH]ncc1-c1cc2nc([C@@H]3CCCCN3)[nH]c(=O)c2s1 [Example 83, 6-(5-methyl-1H-pyrazol-4-yl)-2-[(2S)-piperidin-2-yl]thieno[3,2-d]pyrimidin-4 (3H)-one dihydrochloride] |  | 76.6 | 97.6 | 5.7 | 71.8 |  | inhibitory rate (%) at 1 μM (Cdc7/Dbf4 complex; [5]): 125.5%
Cc1[nH]ncc1-c1cc2nc(C34CCC(CC3)N4)[nH]c(=O)c2s1 [Example 116, 2-(7-azabicyclo[2.2.1]hept-1-yl)-6-(5-methyl-1H-pyrazol-4-yl)thieno[3,2-d]pyrimidin-4 (3H)-one monohydrochloride] | 102 | 60.5 | 98.7 |  |  |  | 

Now from value to compound, other results behind:

inhibition at 1 µM (Cdc7/Dbf4 complex; [6]) [%] | SMILES | inhibition at 1 µM [1] [%] | inhibition at 1 µM ([2]; COLO 205, 8 h) [%] | T/C (%) [3, 7] [%] | inhibition at 100 mg/kg [4] [%] | inhibition at 1 µM (Cdc7/Dbf4 complex; [8]) [%] | other results
102 | O=c1[nH]c([C@@H]2CCCCN2)nc2cc(-c3cn[nH]c3C(F)(F)F)sc12 [Example 161, 2-[(2S)-piperidin-2-yl]-6-[5-(trifluoromethyl)-1H-pyrazol-4-yl]thieno[3,2-d]pyrimidin-4 (3H)-one hydrochloride] | 78.6 | 96.2 | −3.6 | 80.9 |  | 
126 | Cc1[nH]ncc1-c1cc2nc([C@@H]3CC=CCN3)[nH]c(=O)c2s1 [Example 145, 6-(5-methyl-1H-pyrazol-4-yl)-2-[(2S)-1,2,3,6-tetrahydropyridin-2-yl]thieno[3,2-d]pyrimidin-4 (3H)-one dihydrochloride] | 78.5 | 95.8 | −4.7 | 68.9 |  | 
93.8 | Cc1[nH]ncc1-c1cc2nc(CN3CCCC3)[nH]c(=O)c2s1 [Example 2, 6-(5-methyl-1H-pyrazol-4-yl)-2-(pyrrolidin-1-ylmethyl)thieno[3,2-d]pyrimidin-4 (3H)-one] | 44.1 | 90.4 |  |  |  | 

Source: patent US9388195B2, “Heterocyclic compound” (Takeda Pharmaceutical Company Limited, priority 2010, dated 2016)
